In PMC10698194 (Nature Communications, 2023):
Where “and” joins values, the source holds several entries; their conditions need not be identical. Equal entries are not always repeated. Bridge positions count the residues as written; N and C are the ends. Square brackets hold non-standard residues; d marks the D form. Peptide text beside a SMILES is read from it. * marks the point of attachment. X1 = C=CCN1CC[C@]23c4c5ccc(O)c4O[C@H]2[C@H](N*)CC[C@@]3(O)[C@H]1C5

Legend:
mouse KOR [1] = molecular target: T1, mouse KOR (Mus musculus, UniProt P33534); experiment: biochemical; type: binding; design: expressed in transfected cells; conditions: for specific [3H]DPN binding, normalized to 100%: replicates; for Ki: [3H]DPN 1 nM, read-out: Ki
mouse KOR [2] = molecular target: T1, mouse KOR; experiment: cell-based; design: expressed in transfected cells; conditions: for Emax: HEK-293T, read-out: Emax cAMP assay; for EC50: read-out: EC50 cAMP assay

T1 sequence (P33534 whole entry): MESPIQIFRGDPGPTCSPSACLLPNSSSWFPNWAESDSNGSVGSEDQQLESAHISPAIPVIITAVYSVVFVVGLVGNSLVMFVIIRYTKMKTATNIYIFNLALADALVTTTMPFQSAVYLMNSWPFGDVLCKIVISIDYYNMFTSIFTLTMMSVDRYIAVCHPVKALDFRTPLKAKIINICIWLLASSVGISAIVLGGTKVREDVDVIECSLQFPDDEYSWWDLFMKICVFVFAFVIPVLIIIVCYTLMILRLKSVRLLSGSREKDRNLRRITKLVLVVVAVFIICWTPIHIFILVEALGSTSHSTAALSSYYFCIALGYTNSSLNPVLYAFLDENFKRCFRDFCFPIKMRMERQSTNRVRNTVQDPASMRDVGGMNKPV

SMILES	specific [3H]DPN binding, normalized to 100% (mouse KOR [1]; Log [ligand] (M) -5)	specific [3H]DPN binding, normalized to 100% (mouse KOR [1]; Log [ligand] (M) -5.5)	specific [3H]DPN binding, normalized to 100% (mouse KOR [1]; Log [ligand] (M) -6)	specific [3H]DPN binding, normalized to 100% (mouse KOR [1]; Log [ligand] (M) -6.5)	specific [3H]DPN binding, normalized to 100% (mouse KOR [1]; Log [ligand] (M) -7)	specific [3H]DPN binding, normalized to 100% (mouse KOR [1]; Log [ligand] (M) -7.5)	specific [3H]DPN binding, normalized to 100% (mouse KOR [1]; Log [ligand] (M) -8)	specific [3H]DPN binding, normalized to 100% (mouse KOR [1]; Log [ligand] (M) -8.5)	specific [3H]DPN binding, normalized to 100% (mouse KOR [1]; Log [ligand] (M) -9)	specific [3H]DPN binding, normalized to 100% (mouse KOR [1]; Log [ligand] (M) -9.5)	Ki (mouse KOR [1]) [nM]	Emax (mouse KOR [2]) [%]	EC50 (mouse KOR [2]) [nM]
C=CCN1CC[C@]23c4c5ccc(O)c4O[C@H]2[C@H](NC(=O)[C@@H](Cc2ccccc2)NC(=O)[C@H](CO)NC(=O)[C@@H]2CSCC(=O)N[C@H]([C@H](C)O)C(=O)N[C@@H](CC(N)=O)C(=O)N[C@H](CCC(=O)O)C(=O)N[C@H](CO)C(=O)N[C@H](CC(C)C)C(=O)N2)CC[C@@]3(O)[C@H]1C5 [DNCP-β-NalA(2)] ({CH2CO}-[dT]N[dE][dS][dL]CS[dF]-X1; thioether N-6)	0.2531 and 1.3817 and 8.417	5.254 and 5.706 and 15.2738	8.812 and 8.467 and 22.3516	20.0364 and 16.1798 and 28.5928	30.6965 and 29.2448 and 46.3656	73.9679 and 58.4159 and 82.1752	84.0925 and 77.2121 and 90.6295	94.004 and 85.6847 and 98.8664	85.0018 and 88.1692 and 96.9444	100	31	89 ± 2	7.5
C=CCN1CC[C@]23c4c5ccc(O)c4O[C@H]2[C@H](NC(=O)[C@@H](Cc2ccccc2)NC(=O)[C@@H](NC(=O)[C@@H]2CSCC(=O)N[C@@H](CC(=O)O)C(=O)N[C@@H](C)C(=O)N[C@H](Cc4ccc(O)cc4)C(=O)N[C@H](C)C(=O)N[C@@H](C(C)C)C(=O)N2)[C@@H](C)O)CC[C@@]3(O)[C@H]1C5 [DNCP-β-NalA(3)] ({CH2CO}-DA[dY][dA]VCT[dF]-X1; thioether N-6)	4.711 and 4.268 and 3.134	9.049 and 8.477 and 7.931	13.9379 and 12.8705 and 12.6183	21.3908 and 20.9203 and 21.0807	41.59 and 36.2221 and 28.4597	75.8729 and 62.6776 and 54.9604	98.7879 and 86.9193 and 89.7517	102.113 and 95.9134 and 97.9933	101.53 and 101.749 and 103.107	100	24	99 ± 1	14
C=CCN1CC[C@]23c4c5ccc(O)c4O[C@H]2[C@H](NC(=O)[C@@H](Cc2ccccc2)NC(=O)[C@H](CO)NC(=O)[C@@H]2CSCC(=O)N[C@H](CO)C(=O)N[C@H](CC(=O)O)C(=O)N[C@H](Cc4c[nH]cn4)C(=O)N[C@@H](C)C(=O)N[C@@H](C)C(=O)N2)CC[C@@]3(O)[C@H]1C5 [DNCP-β-NalA(4)]	7 and 5.59 and 5.4127	12.4013 and 7.976 and 9.019	12.817 and 12.3329 and 11.7119	19.572 and 16.0481 and 16.106	34.7156 and 27.5243 and 29.2083	62.865 and 48.8054 and 54.3277	85.7392 and 63.6235 and 68.5184	110.569 and 79.1117 and 88.8606	116.546 and 94.2824 and 100.104	100		101 ± 2	1
